# Source: paper PMC11277004, “Di- and Triselenoesters—Promising Drug Candidates for the Future Therapy of Triple-Negative Breast Cancer” (International Journal of Molecular Sciences, 2024)
# Like-named read-outs stand apart in the source and are kept apart here.
# How the values were obtained:
# Type in all cases: cell-based, human
# [1] = system: caspase 3/7; experiment: Caspase 3/7 activity (FAM-FLICA, flow cytometry), MDA-MB-231; conditions: 24 h
# Method: The FAM-FLICA® Caspase Assay kits (all from ImmunoChemistry Technologies, Bloomington, MN, USA) and flow cytometer (BD FACSCanto II, BD Biosciences Systems, San Jose, CA, USA) were used to evaluate the activity of caspase 3/7, 8, and 9. MCF-7 and MDA-MB-231 cells were treated with selenoesters under the study (EDAG-1 and EDAG-8) and a reference agent (cisplatin) at two different concentrations (0.5 and 1 µM; treatment duration: 24 h). Following this, cells were collected, washed twice with cold PBS, and resuspended in an Apoptosis Wash Buffer to a final concentration of 5 × 10^5 cells/mL. In the next step, 290 µL each of cell suspension was taken and transferred into tubes. Then 10 µL of FLICA solution diluted immediately before use (1:5 v/v, using PBS) was added to the cells, mixed by pipetting, and incubated in the dark for 1 h at 37 °C. After this time, the cells were washed twice with 2 mL Apoptosis Wash Buffer, centrifuged, and resuspended in 300 µL of the buffer. Thus, prepared samples were immediately analyzed using a BD FACSCanto II flow cytometer (10,000 events) with the FACSDiva 6.0 software (both from BD Biosciences Systems, San Jose, CA, USA). The equipment calibration was carried out using the BD Cytometer Setup and Tracking Beads (BD Biosciences, San Diego, CA, USA).
# [2] = system: MDA-MB-231 breast cancer cells; experiment: Mitochondrial membrane potential (JC-1, flow cytometry), MDA-MB-231; conditions: 24 h
# Method: (§1) The entire cell staining and cytometric analysis procedures were performed according to the instructions provided with the kit. In the first step, the cells (1 × 10^6 cells/sample) were washed and resuspended in 0.5 mL of buffer containing 10 µg/mL JC-1 dye. Incubation was carried out for 15 min at room temperature, protected from light. Afterward, the cells were washed twice with buffer, resuspended in 0.5 mL PBS, and immediately analyzed using a flow cytometer (BD FACSCanto II; 10,000 events measured) and the FACSDiva 6.0 software (BD Biosciences Systems, San Jose, CA, USA) to count the percentage of cells with reduced ΔΨm. The equipment was calibrated with the BD Cytometer Setup and Tracking Beads (BD Biosciences, San Diego, CA, USA).
# [3] = system: LC3A/B; experiment: LC3A/B protein level by flow cytometry, MCF-7; conditions: 24 h
# Method: For this purpose, Akt (PE), Bax (FITC), Bcl-2 (Alexa Fluor® 647), LC3A/B (Alexa Fluor® 488), and p53 (Alexa Fluor® 488) antibodies conjugated to different fluorochromes (all from Cell Signaling Technology, Beverly, MA, USA) were utilized. Each assay was performed according to the manufacturer's protocol available on their website. After incubation with the tested compounds, the cells were centrifuged, resuspended in 4% formaldehyde (100 μL/1 × 10^6 cells), and fixed for 15 min at room temperature. Afterward, to remove the formaldehyde, the cells were washed by centrifugation with excess PBS and the permeabilization step was triggered. For this purpose, ice-cold 90% methanol was added to the pre-chilled cell pellet, gently vortexed, and incubated for 1 h on ice. Later, the cells were washed by centrifugation with excess PBS again, resuspended in 100 μL of 1:100 diluted primary antibody (stain buffer was used for dilution), and incubated for 1 h at room temperature in the dark. After incubation, the cells were washed, resuspended in 300 μL PBS, and immediately tested with a flow cytometer (BD FACSCanto II, BD Biosciences Systems, San Jose, CA, USA; 10,000 events measured). The obtained results were analyzed using the FACSDiva 6.0 software (BD Biosciences Systems, San Jose, CA, USA). In the case of the p53 protein, the MRF values were obtained first during the flow cytometer readout utilizing FACSDiva software and later analyzed using FCS Express 7 (De Novo Software, Pasadena, CA, USA). The equipment calibration was performed using the BD Cytometer Setup and Tracking Beads (BD Biosciences, San Diego, CA, USA).
# [4] = system: MCF-7 breast cancer cells; experiment: DNA biosynthesis assay ([3H]-thymidine incorporation), MCF-7; conditions: read-out: IC50, DNA biosynthesis
# Method: (§2) The study of the antiproliferative properties (intensity of [^3H]-thymidine incorporation into cell DNA) of the tested derivatives against tested cell lines (MCF-7, MDA-MB-231, MCF-10A) was performed after 24 h incubation with varied concentrations of the tested compounds in the medium (0.5–5 µM) in 6-well plates (baseline seeding density: 5 × 10^5 cells/well). After 24 h the medium was removed, the cells were washed with PBS (Corning, Kennebunk, ME, USA), and a fresh medium was added. After that, the cells were treated with 0.5 µCi of tritium-labeled thymidine (specific activity 7 Ci/mmol) by incubating them with this compound for 4 h under the same conditions as the cell culture. In the first step, the medium was removed, and the cell monolayer was washed twice with 1 mL of 0.05 M Tris-HCl buffer pH 7.4 containing 0.11 M NaCl. To denature proteins, the cells were washed twice with 1 mL of 5% trichloroacetic acid (TCA) solution. Finally, cell lysis was performed by adding 1 mL of 0.1 M sodium hydroxide (NaOH) solution containing 1% sodium dodecyl sulfate (SDS) to each well. After five minutes, the obtained cell lysates were transferred to scintillation vials with 2 mL of scintillation fluid added to them beforehand. Radioactivity was measured using the Scintillation Counter 1900 TR, TRI-CARB (Packard, Perkin Elmer, Inc., San Jose, CA, USA). The intensity of DNA biosynthesis in the analyzed cells was expressed in terms of dpm/well. The result of the radioactivity measurement in the control cells (without the addition of tested compounds) was taken as 100%, while the values of cells incubated with the tested compounds were presented as a percentage of the control value.
# [5] = system: MCF-7 breast cancer cells; experiment: Mitochondrial membrane potential (JC-1, flow cytometry), MCF-7; conditions: 24 h
# Method: as §1
# [6] = system: MDA-MB-231 triple-negative breast cancer cells; experiment: DNA biosynthesis assay ([3H]-thymidine incorporation), MDA-MB-231; conditions: read-out: IC50, DNA biosynthesis
# Method: as §2
SMILES,"Active caspase 3/7 ± SD (cells) ([1]; MDA-MB-231, 0.5 μM) [%]","Active caspase 3/7 ± SD (cells) ([1]; MDA-MB-231, 1 μM) [%]","Decreased ΔΨm ± SD (cells) ([2]; MDA-MB-231, 0.5 μM) [%]","Decreased ΔΨm ± SD (cells) ([2]; MDA-MB-231, 1 μM) [%]","LC3A/B positive cells ± SD ([3]; MCF-7, 0.5 μM) [%]","LC3A/B positive cells ± SD ([3]; MCF-7, 1 μM) [%]","IC50 ([4]; MCF-7, 24 h incubation) [nM]","Decreased ΔΨm ± SD (cells) ([5]; MCF-7, 0.5 μM) [%]","Decreased ΔΨm ± SD (cells) ([5]; MCF-7, 1 μM) [%]","IC50 ([6]; MDA-MB-231, 24 h incubation) [nM]","IC50 ([4]; Homo sapiens, MCF7, 24 h) [nM]","IC50 ([6]; Homo sapiens, MDA-MB-231, 24 h) [nM]"
"N.N.[Cl][Pt][Cl] [Cisplatin, reference compound]",5.2 ± 0.5,5.2 ± 0.6,11.2 ± 0.9,12.9 ± 0.2,3.3 ± 0.5,3.5 ± 0.4,> 5000,6.3 ± 1.6,7.2 ± 0.4,> 5000,–,–
"CC(=O)C[Se]C(=O)c1ccc(C(=O)[Se]CC(C)=O)cc1 [EDAG-1, Se,Se-bis(2-oxopropyl) benzene-1,4-bis(carboselenoate)]",9.2 ± 0.5,12.5 ± 0.4,29.2 ± 2.2,72.1 ± 0.9,9.9 ± 0.9,12.0 ± 1.4,–,10.0 ± 0.4,15.3 ± 1.1,–,790 ± 20,700 ± 150
"CC(=O)C[Se]C(=O)c1cc(C(=O)[Se]CC(C)=O)cc(C(=O)[Se]CC(C)=O)c1 [EDAG-8, Se,Se,Se-tris-(2-oxopropyl) benzene-1,3,5-tris-(carboxyselenoate)]",19.7 ± 0.6,32.2 ± 2.9,55.0 ± 3.0,92.5 ± 0.7,11.9 ± 1.1,17.4 ± 1.3,–,18.7 ± 0.9,54.2 ± 4.6,–,960 ± 70,470 ± 80
